Experimental data reported in US11440913B2, “Aminoimidazopyridazines as kinase inhibitors” (BRISTOL-MYERS SQUIBB COMPANY, priority 2017, dated 2022).
Counter-ions that a name gives are not always drawn. Like-named read-outs stand apart in the source and are kept apart here.

Experiments:
[1] = molecular target: His-GST-TVMV-hRIPK1(1-324) (Homo sapiens (Human), UniProt Q13546); experiment: RIPK1 HTRF Binding Assay; settings: HTRF binding, 1 h at rt; read-out: RIPK1 (IC50)
In short: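 HTRF probe-displacement binding: 1 nM His-GST-TVMV-hRIPK1(1-324) (baculovirus construct), 90.6 nM probe, 0.2 nM anti-GST-Tb in 20 mM HEPES, 10 mM MgCl2, 0.015% Brij-35, 4 mM DTT, 0.05 mg/mL BSA. Incubated 1 h at rt; FRET 520/495 nm ratio, inhibition relative to DMSO-only wells.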

[2] = tested on: MLKL phosphorylation in HT29-L23 human colorectal adenocarcinoma cells; experiment: MLKL Phosphorylation High-Content Assay; format: cell-based; settings: 6 h, necroptosis induced with TNFα, SMAC mimetic and Z-VAD, read-out: pMLKL (IC50)
In short: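 HT29-L23 cells pretreated 30 min at 37 °C with compound (6.25 to 0.106 μM final), then necroptosis induced with TNFα 35 ng/mL, SMAC mimetic 700 nM and Z-VAD 140 nM for 6 h. Fixed cells immunostained for MLKL pS358 and imaged; IC50 and Ymax from 4-parameter logistic fit.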

Chain of His-GST-TVMV-hRIPK1(1-324) (Q13546 1-324): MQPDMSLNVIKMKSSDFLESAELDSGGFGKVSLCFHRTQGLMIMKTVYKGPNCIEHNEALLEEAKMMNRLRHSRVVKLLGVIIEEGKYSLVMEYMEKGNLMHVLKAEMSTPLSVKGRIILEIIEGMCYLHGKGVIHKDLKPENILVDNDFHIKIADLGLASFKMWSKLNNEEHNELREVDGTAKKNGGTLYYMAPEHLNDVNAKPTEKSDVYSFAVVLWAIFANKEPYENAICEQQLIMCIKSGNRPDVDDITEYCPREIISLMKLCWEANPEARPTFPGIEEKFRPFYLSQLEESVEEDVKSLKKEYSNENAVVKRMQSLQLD

Compound: [2H]C([2H])([2H])Oc1ncc(-c2ccc3nc(NC(C)=O)cn3n2)cc1C(=O)NCc1cc(F)cc(F)c1OC1COC1 [Example 48, N-{[3,5-difluoro-2-(oxetan-3-yloxy)phenyl]methyl}-5-{2-acetamidoimidazo[1,2-b]pyridazin-6-yl}-2-(D3)methoxypyridine-3-carboxamide]
- IC50 [1]: 0.01 µM
- IC50 ([2]; Homo sapiens): 0.087 µM

Compound: CC(=O)Nc1cn2nc(-c3cc(C(=O)N[C@H](C)c4cc(C(F)(F)F)ccc4F)c(C)nc3C)ccc2n1 [Example 69, 5-{2-acetamidoimidazo[1,2-b]pyridazin-6-yl}-N-[(1R)-1-[2-fluoro-5-(trifluoromethyl)phenyl]ethyl]-2,6-dimethylpyridine-3-carboxamide]
- IC50 [1]: 0.015 µM
- IC50 ([2]; Homo sapiens): 0.023 µM

Compound: [2H]C([2H])([2H])Oc1ncc(-c2ccc3nc(NC(C)=O)cn3n2)cc1C(=O)N[C@H](C)c1cc(OC(F)(F)F)ccc1F [Example 47, 5-{2-acetamidoimidazo[1,2-b]pyridazin-6-yl}-N-[(1R)-1-[2-fluoro-5-(trifluoromethoxy)phenyl]ethyl]-2-(D3)methoxypyridine-3-carboxamide]
- IC50 [1]: 0.161 µM
- IC50 ([2]; Homo sapiens): 0.085 µM

Compound: CC(=O)Nc1cn2nc(-c3cnc(C)c(C(=O)NCc4ccccc4OC4CCOC4)c3)ccc2n1 (stereo not shown) [Example 224, 5-{2-acetamidoimidazo[1,2-b]pyridazin-6-yl}-2-methyl-N-{[2-(oxolan-3-yloxy)phenyl]methyl}pyridine-3-carboxamide]
- IC50 [1]: 0.157 µM
- IC50 ([2]; Homo sapiens): 0.334 µM

Compound: COc1cc(F)c(-c2ccc3nc(NC(C)=O)cn3n2)cc1C(=O)NCc1c(F)cccc1OC [Example 420, 5-{2-acetamidoimidazo [1,2-b]pyridazin-6-yl}-4-fluoro-N-[(2-fluoro-6-methoxyphenyl)methyl]-2-methoxybenzamide]
- IC50 [1]: 0.09 µM
- IC50 ([2]; Homo sapiens): 0.077 µM

Compound: Cc1ncc(-c2ccc3nc(NC(=O)CN4CCC(F)(F)CC4)cn3n2)cc1C(=O)NCC[C@@H](O)c1ccc(Cl)cc1 [Example 343, N-[(3R)-3-(4-chlorophenyl)-3-hydroxypropyl]-5-{2-[2-(4,4-difluoropiperidin-1-yl)acetamido]imidazo[1,2-b]pyridazin-6-yl}-2-methylpyridine-3-carboxamide]
- IC50 [1]: 0.009 µM
- IC50 ([2]; Homo sapiens): 0.024 µM

Compound: N-{[3,5-difluoro-2-(oxan-4- yloxy)phenyl](deutero)methyl}- 5-{2-acetamidoimidazo[1,2-b] pyridazin-6-yl}- 2-methylpyridine- 3-carboxamide [Example 192]
- IC50 [1]: 0.003 µM
- IC50 [2]: 0.005 µM

Compound: CC(=O)Nc1cn2nc(-c3cnc(Cl)c(C(=O)NCc4cc(F)cc(F)c4OC(C)C4CCC4)c3)ccc2n1 (stereo not shown) [Example 273, 2-chloro-N-{[2-(1-cyclobutylethoxy)-3,5-difluorophenyl]methyl}-5-{2-acetamidoimidazo[1,2-b]pyridazin-6-yl}pyridine-3-carboxamide, TFA]
- IC50 [1]: 0.004 µM
- IC50 ([2]; Homo sapiens): 0.043 µM

Compound: CC(=O)Nc1cn2nc(-c3ccc(F)c(C(=O)NCc4cc(F)ccc4C(=O)N4CCC(F)(F)CC4)c3F)ccc2n1 [Example 381, N-{[2-(4,4-difluoropiperidine-1-carbonyl)-5-fluorophenyl]methyl}-3-{2-acetamidoimidazo [1,2-b]pyridazin-6-yl}-2,6-difluorobenzamide]
- IC50 [1]: 0.008 µM
- IC50 ([2]; Homo sapiens): 0.074 µM

Compound: COc1ncc(-c2ccc3nc(NC(C)=O)cn3n2)cc1C(=O)NCc1cc(F)cc(F)c1OC(C)C1CC1 (stereo not shown) [Example 148, N-{[2-(1-cyclopropylethoxy)-3,5-difluorophenyl]methyl}-5-(2-acetamidoimidazo[1,2-b]pyridazin-6-yl}-2-methoxypyridine-3-carboxamide]
- IC50 [1]: 0.004 µM
- IC50 ([2]; Homo sapiens): 0.002 µM

Compound: CC(=O)Nc1cn2nc(-c3ccc(C)c(C(=O)NCc4cc(-c5cnn(C6CC6)c5)ccc4F)c3F)ccc2n1 [Example 409, N-{[5-(1-cyclopropyl-1H-pyrazol-4-yl)-2-fluorophenyl]methyl}-3-{2-acetamidoimidazo [1,2-b]pyridazin-6-yl}-2-fluoro-6-methylbenzamide]
- IC50 [1]: 0.002 µM
- IC50 ([2]; Homo sapiens): 0.013 µM

Compound: CC(=O)Nc1cn2nc(-c3cnc(C)c(C(=O)NCc4cc(F)cc(F)c4OC4CCOCC4)c3)ccc2n1 [Example 201, N-{[3,5-difluoro-2-(oxan-4-yloxy)phenyl]methyl}-5-{2-acetamidoimidazo[1,2-b]pyridazin-6-yl}-2-methylpyridine-3-carboxamide]
- IC50 [1]: 0.006 µM
- IC50 ([2]; Homo sapiens): 0.01 µM

Compound: CC(=O)Nc1cn2nc(-c3ccc(C)c(C(=O)NCc4cc(F)ccc4-c4cnn(C5CC5)c4)c3F)ccc2n1 [Example 410, N-{[2-(1-cyclopropyl-1H-pyrazol-4-yl)-5-fluorophenyl]methyl}-3-{2-acetamidoimidazo [1,2-b]pyridazin-6-yl}-2-fluoro-6-methylbenzamide]
- IC50 [1]: 0.039 µM
- IC50 ([2]; Homo sapiens): 0.077 µM

Compound: COc1nc(C)c(-c2ccc3nc(NC(C)=O)cn3n2)cc1C(=O)NC(C)c1ccccc1OC(F)(F)F (stereo not shown) [Example 290, 5-{2-acetamidoimidazo[1,2-b]pyridazin-6-yl}-2-methoxy-6-methyl-N-{1-[2-(trifluoromethoxy)phenyl]ethyl}pyridine-3-carboxamide]
- IC50 [1]: 0.007 µM
- IC50 [2]: 0.003 µM

Compound: Cc1ncc(-c2ccc3nc(NC(=O)CN4CC(F)(F)C4)cn3n2)cc1C(=O)N[C@H](C)c1cc(OC(F)(F)F)ccc1F [Example 335, 5-{2-[2-(3,3-difluoroazetidin-1-yl)acetamido]-imidazo[1,2-b]pyridazin-6-yl}-N-[(1R)-1-[2-fluoro-5-(trifluoromethoxy)-phenyl]ethyl]-2-methylpyridine-3-carboxamide]
- IC50 [1]: 0.028 µM
- IC50 ([2]; Homo sapiens): 0.009 µM

Compound: COc1ncc(-c2ccc3nc(NC(=O)CO)cn3n2)cc1C(=O)NCc1cc(C(F)(F)F)ccc1F [Example 34, N-{[2-fluoro-5-(trifluoromethyl)phenyl]methyl}-5-[2-(2-hydroxyacetamido)imidazo[1,2-b]pyridazin-6-yl]-2-methoxypyridine-3-carboxamide]
- IC50 [1]: 0.096 µM
- IC50 ([2]; Homo sapiens): 0.215 µM

Compound: 5-{2-acetamidoimidazo[1,2-b]pyridazin- 6-yl}-2-methoxy-6-methyl-N-{[2- (trifluoromethoxy)phenyl](deutero)- methyl}pyridine-3-carboxamide [Example 295]
- IC50 [1]: 0.01 µM
- IC50 [2]: 0.023 µM

Compound: [2H]C([2H])([2H])[C@@H](NC(=O)c1c(C)ccc(-c2ccc3nc(NC(C)=O)cn3n2)c1F)c1cc(C(F)(F)F)ccc1F [Example 413, 3-{2-acetamidoimidazo [1,2-b]pyridazin-6-yl}-2-fluoro-N-[(1R)-1-[2-fluoro-5-(trifluoromethyl)phenyl](2,2,2-Â^2Hâ,f)ethyl]-6-methylbenzamide]
- IC50 [1]: 0.003 µM
- IC50 ([2]; Homo sapiens): 0.001 µM

Compound: CC(=O)Nc1cn2nc(-c3ccc(C)c(C(=O)N[C@H](C)c4cc(OC(F)(F)F)ccc4F)c3)ccc2n1 [Example 396, (R)-5-(2-acetamidoimidazo [1,2-b]pyridazin-6-yl)-N-(1-(2-fluoro-5-(trifluoromethoxy)phenyl)ethyl)-2-methylbenzamide]
- IC50 [1]: 0.001 µM
- IC50 ([2]; Homo sapiens): 0.007 µM

Compound: CC(=O)Nc1cn2nc(-c3cc(C(=O)NCc4ccccc4OCC4CC4)c(C)nc3C)ccc2n1 [Example 83, N-{[2-(cyclopropylmethoxy)phenyl]methyl}-5-{2-acetamidoimidazo[1,2-b]pyridazin-6-yl}-2,6-dimethylpyridine-3-carboxamide]
- IC50 [1]: 0.005 µM
- IC50 [2]: 0.007 µM

Compound: CC(=O)Nc1cn2nc(-c3cnc(C)c(C(=O)NCc4c(F)cccc4OCC4CC4)c3)ccc2n1 [Example 226, N-{[2-(cyclopropylmethoxy)-6-fluorophenyl]methyl}-5-{2-acetamidoimidazo[1,2-b]pyridazin-6-yl}-2-methylpyridine-3-carboxamide]
- IC50 [1]: 0.006 µM
- IC50 ([2]; Homo sapiens): 0.003 µM

Compound: [2H]C([2H])([2H])Oc1ncc(-c2ccc3nc(NC(C)=O)cn3n2)cc1C(=O)NC(C)c1ccccc1OC(F)(F)F (stereo not shown) [Example 54, 5-{2-acetamidoimidazo[1,2-b]pyridazin-6-yl}-2-(D3)methoxy-N-{1-[2-(trifluoromethoxy)phenyl]eth-yl}pyridine-3-carboxamide]
- IC50 [1]: 0.005 µM
- IC50 ([2]; Homo sapiens): 0.024 µM

Compound: Cc1nc(C)c(-c2ccc3nc(NC(=O)CO)cn3n2)cc1C(=O)NCc1cc(OC(F)(F)F)ccc1F [Example 38, N-(2-fluoro-5-(trifluoromethoxy)benzyl)-5-(2-(2-hydroxyacetamido)imidazo[1,2-b]pyridazin-6-yl)-2,6-dimethylnicotinamide]
- IC50 [1]: 0.013 µM
- IC50 ([2]; Homo sapiens): 0.034 µM

Compound: COc1ncc(-c2ccc3nc(NC(=O)C(C)(C)C#N)cn3n2)cc1C(=O)NCc1cc(OCC2CC2)ccc1F [Example 29, 5-[2-(2-cyano-2,2-dimethylacetamido)imidazo[1,2-b]pyridazin-6-yl]-N-{[5-(cyclopropylmethoxy)-2-fluorophenyl]methyl}-2-methoxypyridine-3-carboxamide]
- IC50 [1]: 0.257 µM
- IC50 ([2]; Homo sapiens): 0.45 µM

Compound: COc1ncc(-c2ccc3nc(NC(C)=O)cn3n2)cc1C(=O)NCC[C@H](O)c1ccc(Cl)cc1 [Example 119, N-[(3S)-3-(4-chlorophenyl)-3-hydroxypropyl]-5-{2-acetamidoimidazo[1,2-b]pyridazin-6-yl}-2-methoxypyridine-3-carboxamide]
- IC50 [1]: 0.116 µM
- IC50 ([2]; Homo sapiens): 0.094 µM

Compound: CC(=O)Nc1cn2nc(-c3cnc(C)c(C(=O)NCc4c(F)cccc4OCC(F)(F)F)c3)ccc2n1 [Example 190, 5-{2-acetamidoimidazo[1,2-b]pyridazin-6-yl}-N-{[2-fluoro-6-(2,2,2-trifluoroethoxy)phenyl]methyl}-2-methylpyridine-3-carboxamide]
- IC50 [1]: 0.023 µM
- IC50 ([2]; Homo sapiens): 0.035 µM
